Experimental data: ChEMBL document CHEMBL1201862, “PubChem BioAssay data set” (2004)
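Following 48 hours of exposure in 96-well plates, responses at five concentrations were used to interpolate endpoints linearly. GI50 marks 50% less growth.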 The source made the active and inactive calls. No stated cut-off is given here; in the data, active = GI50 up to about 1.1 µM and inactive = higher.

Key:
Experiment in all cases: DTP human tumour cell line panel, 48 h
ACHN = tested on: ACHN
CAKI-1 = tested on: CAKI-1
COLO 205 = tested on: COLO 205
HCC 2998 = tested on: HCC 2998
HL-60 = tested on: HL-60
HOP-62 = tested on: HOP-62
HOP-92 = tested on: HOP-92
KM12 = tested on: KM12
LOX IMVI = tested on: LOX IMVI
Malme-3M = tested on: Malme-3M
NCI-H226 = tested on: NCI-H226
NCI-H460 = tested on: NCI-H460
OVCAR-3 = tested on: OVCAR-3
RPMI-8226 = tested on: RPMI-8226
SF-539 = tested on: SF-539
SK-MEL-5 = tested on: SK-MEL-5
SR = tested on: SR
SW-620 = tested on: SW-620
UACC-62 = tested on: UACC-62
PC-3 = tested on: PC-3

Row | Structure (SMILES) | GI50 (ACHN) | GI50 (CAKI-1) | GI50 (COLO 205) | GI50 (HCC 2998) | GI50 (HL-60) | GI50 (HOP-62) | GI50 (HOP-92) | GI50 (KM12) | GI50 (LOX IMVI) | GI50 (Malme-3M) | GI50 (NCI-H226) | GI50 (NCI-H460) | GI50 (OVCAR-3) | GI50 (RPMI-8226) | GI50 (SF-539) | GI50 (SK-MEL-5) | GI50 (SR) | GI50 (SW-620) | GI50 (UACC-62) | GI50 (PC-3)
1 | CC(C)C1COC(c2cccc(C3=N[C@@H](C(C)C)CO3)n2)=N1 (stereo partly drawn) | > 100 µM (inactive) | > 100 µM (inactive) | > 100 µM (inactive) | > 100 µM (inactive) | > 100 µM (inactive) | > 100 µM (inactive) | > 100 µM (inactive) | > 100 µM (inactive) | > 100 µM (inactive) | > 100 µM (inactive) | > 100 µM (inactive) | > 100 µM (inactive) | > 100 µM (inactive) | > 100 µM (inactive) | > 100 µM (inactive) | > 100 µM (inactive) | > 100 µM (inactive) | > 100 µM (inactive) |  | 
2 | COC(=O)C(=O)C(CC(=O)Nc1ccc(C)cc1)C(=O)OC (stereo not drawn) | > 100 µM (inactive) | > 100 µM (inactive) |  | > 100 µM (inactive) | > 100 µM (inactive) | > 100 µM (inactive) | > 100 µM (inactive) | > 100 µM (inactive) | > 100 µM (inactive) | > 100 µM (inactive) | > 100 µM (inactive) | > 100 µM (inactive) | > 100 µM (inactive) | > 100 µM (inactive) | > 100 µM (inactive) | > 100 µM (inactive) | > 100 µM (inactive) | > 100 µM (inactive) | > 100 µM (inactive) | 
3 | CC(C)(C)C(=O)C(CC(=O)c1ccccc1)C(=O)C(C)(C)C | > 100 µM (inactive) | > 100 µM (inactive) | > 100 µM (inactive) | > 100 µM (inactive) | > 100 µM (inactive) | 99.1 µM (inactive) | 44.7 µM (inactive) | > 100 µM (inactive) | > 100 µM (inactive) | > 100 µM (inactive) | > 100 µM (inactive) | > 100 µM (inactive) | > 100 µM (inactive) | > 100 µM (inactive) | > 100 µM (inactive) | > 100 µM (inactive) |  | > 100 µM (inactive) |  | > 100 µM (inactive)
4 | [N-]=[N+]=NC(c1cn(C2CC(O)C(CO)O2)c(=O)[nH]c1=O)C(Cl)Br (stereo not drawn) | > 100 µM (inactive) | > 100 µM (inactive) | > 100 µM (inactive) | > 100 µM (inactive) | > 100 µM (inactive) |  | > 100 µM (inactive) | > 100 µM (inactive) | > 100 µM (inactive) | > 100 µM (inactive) | > 100 µM (inactive) | > 100 µM (inactive) |  | > 100 µM (inactive) | > 100 µM (inactive) | > 100 µM (inactive) | > 100 µM (inactive) | > 100 µM (inactive) |  | 
5 | CC(C)c1ccc2c(c1)CCC1C(C)(C)[C@@H](O)CC[C@]21C (stereo partly drawn) | 47.4 µM (inactive) | 50.1 µM (inactive) | 18.6 µM (inactive) | 24.8 µM (inactive) | 17.7 µM (inactive) | 19.3 µM (inactive) | 23.5 µM (inactive) | 22.3 µM (inactive) | 15.1 µM (inactive) | 17 µM (inactive) | 18.7 µM (inactive) | 17.9 µM (inactive) | 34 µM (inactive) | 21.2 µM (inactive) | 22.3 µM (inactive) | 17.3 µM (inactive) | 16.5 µM (inactive) |  | 42.3 µM (inactive) | 
6 | COc1ccc2c3c(n(Cc4ccccc4)c(=O)c2c1)-c1cc(OC)c(OC)cc1C3C (stereo not drawn) | 11.5 µM (inactive) | 28.1 µM (inactive) | 41.6 µM (inactive) | 36.6 µM (inactive) | > 46.8 µM (inactive) | 14.8 µM (inactive) | 14.4 µM (inactive) | 23.3 µM (inactive) | 14.3 µM (inactive) | 15.6 µM (inactive) | 17.9 µM (inactive) | 4.71 µM (inactive) | 15 µM (inactive) | 14.5 µM (inactive) | 7.52 µM (inactive) | 12.2 µM (inactive) | 5.12 µM (inactive) | 35.7 µM (inactive) | 18.7 µM (inactive) | 
7 | Cc1cc(Br)c(O)c(-c2cscn2)c1 | 14 µM (inactive) | 24.2 µM (inactive) | 18 µM (inactive) | 19 µM (inactive) | 3.66 µM (inactive) | 22.5 µM (inactive) | 19.5 µM (inactive) |  | 10.2 µM (inactive) | 21.8 µM (inactive) |  | 21.4 µM (inactive) | 52.5 µM (inactive) | 4.81 µM (inactive) | 20 µM (inactive) | 16.8 µM (inactive) |  | 12.3 µM (inactive) | 12.7 µM (inactive) | 10.3 µM (inactive)
8 | Cc1c(Cl)ccc2c1NC(=O)C2(O)C1Cc2ccccc2C1=O (stereo not drawn) | > 100 µM (inactive) | > 100 µM (inactive) | > 100 µM (inactive) | 32.7 µM (inactive) | 21.2 µM (inactive) | > 100 µM (inactive) | > 100 µM (inactive) | > 100 µM (inactive) | > 100 µM (inactive) | > 100 µM (inactive) | > 100 µM (inactive) | > 100 µM (inactive) | > 100 µM (inactive) | 42.5 µM (inactive) | > 100 µM (inactive) | > 100 µM (inactive) | 27.9 µM (inactive) | > 100 µM (inactive) | 72.6 µM (inactive) | 
9 | N#CC1C(=O)NC23CCCCC2C1c1ccccc1O3 (stereo not drawn) | > 100 µM (inactive) | > 100 µM (inactive) | > 100 µM (inactive) | > 100 µM (inactive) | > 100 µM (inactive) | > 100 µM (inactive) | 0.241 µM (active) | > 100 µM (inactive) | > 100 µM (inactive) | > 100 µM (inactive) | > 100 µM (inactive) | > 100 µM (inactive) | > 100 µM (inactive) | > 100 µM (inactive) |  | > 100 µM (inactive) |  | > 100 µM (inactive) | > 100 µM (inactive) | > 100 µM (inactive)
10 | NC(Cc1ccc(S(=O)(=O)O)cc1)C(=O)NC(CCCCNC(=O)NCCCCC(NC(=O)C(N)Cc1ccc(S(=O)(=O)O)cc1)C(=O)NC(Cc1ccc(S(=O)(=O)O)cc1)C(=O)O)C(=O)NC(Cc1ccc(S(=O)(=O)O)cc1)C(=O)O (stereo not drawn) | > 100 µM (inactive) | > 100 µM (inactive) | > 100 µM (inactive) | > 100 µM (inactive) | > 100 µM (inactive) | > 100 µM (inactive) |  | > 100 µM (inactive) | > 100 µM (inactive) | > 100 µM (inactive) | > 100 µM (inactive) | > 100 µM (inactive) | > 100 µM (inactive) | > 100 µM (inactive) | > 100 µM (inactive) | > 100 µM (inactive) |  | > 100 µM (inactive) | > 100 µM (inactive) | > 100 µM (inactive)
11 | Cc1ccccc1NC(=O)CC(=O)n1nc(-c2ccccc2)c(/N=N/c2ccc([N+](=O)[O-])cc2)c1-c1ccccc1 | 11.2 µM (inactive) | 5.87 µM (inactive) | 16.8 µM (inactive) | 17.9 µM (inactive) | 19.9 µM (inactive) | 16 µM (inactive) | 11.4 µM (inactive) | 16.7 µM (inactive) | 20.6 µM (inactive) | 23.8 µM (inactive) | 14.1 µM (inactive) | 31.5 µM (inactive) | 15.7 µM (inactive) | 19.2 µM (inactive) | 19.9 µM (inactive) | 13 µM (inactive) | 25.1 µM (inactive) | 30.5 µM (inactive) | 13.1 µM (inactive) | 
